Results: patent US20030220521A1, “Renal-selective prodrugs for control of renal sympathetic nerve activity in the treatment of hypertension” (G.D. Searle & Co., priority 1989, published 2003)
Where two headings read alike, the source gives them in different places.

Experiments:
[1] = target: T1, dopamine beta-hydroxylase (DBH; EC 1.14.17.1) (Bos taurus, UniProt P15101); assay: Assay V: in vitro DBH inhibition (norepinephrine production, HPLC); assay type: biochemical, bovine; conditions: for inhibition at 20 µM: read-out: % Inhibition of DBH; for inhibitory effect on dopamine-β-hydroxylase activity: tested at 20 uM
T1 construct: DBH, purified from bovine adrenals (Sigma); purchased Sigma; host or cells: bovine adrenals (tissue-purified)
T1 sequence (P15101 1-610): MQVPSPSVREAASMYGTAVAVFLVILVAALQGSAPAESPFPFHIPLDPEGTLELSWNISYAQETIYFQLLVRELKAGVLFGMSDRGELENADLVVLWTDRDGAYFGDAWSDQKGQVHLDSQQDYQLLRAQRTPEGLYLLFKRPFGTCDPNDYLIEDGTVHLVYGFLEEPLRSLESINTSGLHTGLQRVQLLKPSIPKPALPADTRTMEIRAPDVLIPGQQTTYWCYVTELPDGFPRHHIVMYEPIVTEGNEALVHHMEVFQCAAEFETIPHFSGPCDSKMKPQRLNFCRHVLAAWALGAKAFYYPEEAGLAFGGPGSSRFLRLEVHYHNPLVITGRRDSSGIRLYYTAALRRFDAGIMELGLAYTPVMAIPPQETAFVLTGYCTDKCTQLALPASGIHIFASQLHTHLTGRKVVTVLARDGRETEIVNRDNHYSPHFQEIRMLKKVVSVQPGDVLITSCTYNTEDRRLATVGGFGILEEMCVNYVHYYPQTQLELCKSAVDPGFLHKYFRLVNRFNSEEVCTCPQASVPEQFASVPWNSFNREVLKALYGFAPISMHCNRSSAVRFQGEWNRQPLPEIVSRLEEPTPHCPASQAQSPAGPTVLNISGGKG
Method: In order to characterize the relative potency of the Ex. #859 conjugate and its various potential metabolites as inhibitors of dopamine beta-hydroxylase (DBH; EC 1.14.17.1), the enzyme activity was determined in vitro in the presence of these compounds. DBH, purified from bovine adrenals (Sigma) was incubated at 37° C. in buffer containing 20 mM dopamine as substrate. The reaction was stopped by addition of 0.5 M perchloric acid. The precipitate was removed and the product of the enzyme activity (norepinephrine), contained in the clear supernatant, was analyzed by HPLC. The chromatographic separation used a reversed phase C-18 column run isocratically with 0.2 M ammonium acetate (pH 5.2) as the mobile phase. The amount of norepinephrine produced by the enzyme-substrate mixture was analyzed by measuring the peak intensity (absorbance) at 280 nm for norepinephrine as it was eluted at 4.5 minutes, using a photo-diode array detector. The result of adding either fusaric acid or the Ex. #859 conjugate to the incubate at various concentrations is shown in Table XXIII and FIG. 6. […] Fusaric acid and Ex. #859 and two more possible metabolites (Ex #858 and fusaric acid hydrazide) were tested at 20 uM.

[2] = system: spontaneously hypertensive rats; assay: Assay VI: acute in vivo effects on mean arterial pressure and renal blood flow in anesthetized SHR (i.v. or i.d.); design: species or system rat; conditions: for MAP / RBF / acute effect on mean arterial pressure / acute effect on renal blood flow: 50 mg/kg i.v.
Method: Spontaneously hypertensive rats were anesthetized with inactin (100 mg/kg, i.p.) and catheters were implanted into a carotid artery for measurement of mean arterial pressure (Gould model 3800 chart recorder; Statham pressure transducer model no. P23DB) and into a jugular vein for compound administrations (i.v. or i.d.). In addition, a flow probe was implanted around the left renal artery for measurement of renal blood flow using pulsed Doppler flowmetry. Rats were allowed 60 min to stabilize before 10 minutes of control recordings of mean arterial pressure and renal blood flow were obtained. Control measurements were followed by intravenous injection of 50 mg/kg of fusaric acid or the Ex. #859 conjugate. […] The Ex. #859 conjugate had no effect on mean arterial pressure at a dose of 100 mg/kg (n=4) during a 60 minute observation period. Renal blood flow (n=4) was unchanged 15 minutes after injection of the Ex. #859 conjugate but increased from 1.1 KHz (control period) to 3.5 KHz at 30 minutes postinjection.

SHR = assay: Assay VIII: chronic 5 day i.v. infusion, mean arterial pressure in SHR; assay type: in vivo, rat; conditions: for chronic effect on mean arterial pressure compared to vehicle: SHR, 5 day infusion, Ex. #859 5 mg/hr, fusaric acid 2.5 mg/hr
Method: The Ex. #859 conjugate and saline vehicle were infused continuously for 5 days in SHR. Mean arterial pressure was measured (Gould Chart Recorder, model 3800; Statham P23Db pressure transducer) via an indwelling femoral artery catheter between 10:00 a.m. and 2:00 p.m. each day. The Ex. #859 conjugate (5 mg/hr), fusaric acid (2.5 mg/hr), and saline (100 μ1/hr) were infused via a jugular vein catheter with a Harvard infusion pump.

[3] = anesthetized SHR, 60 minute observation

Compound	Norepinephrine Peak Intensity (Abs 280) in the presence of compound ([1]; compound 0.10 μM) [Abs 280]	Norepinephrine Peak Intensity (Abs 280) in the presence of compound ([1]; compound 1.00 μM) [Abs 280]	Norepinephrine Peak Intensity (Abs 280) in the presence of compound ([1]; compound 10.00 μM) [Abs 280]	Norepinephrine Peak Intensity (Abs 280) in the presence of compound ([1]; compound 100.00 μM) [Abs 280]	inhibitory effect on dopamine-β-hydroxylase activity [1]	MAP ([2]; 15 min) [mm Hg]	RBF ([2]; 15 min) [KHz]	MAP ([2]; 30 min) [mm Hg]	RBF ([2]; 30 min) [KHz]	MAP ([2]; 45 min) [mm Hg]	RBF ([2]; 45 min) [KHz]	MAP ([2]; 60 min) [mm Hg]	RBF ([2]; 60 min) [KHz]	MAP ([2]; time zero (control)) [mm Hg]	RBF ([2]; time zero (control)) [KHz]	acute effect on mean arterial pressure [2, 3]	acute effect on renal blood flow [2, 3]	chronic effect on mean arterial pressure compared to vehicle (SHR)	other results
CCCCc1ccc(C(=O)NNC(=O)CCC(NC(C)=O)C(=O)O)nc1 [Ex. #859, N-acetyl-L-glutamic acid, 5-[(5-butyl-2-pyridinyl)-carbonyl]hydrazide]	0.51	0.52	0.61	0.53	Only fusaric acid had significant inhibitory effects	163	3.8	164	4.0	157	4.6	159	4.8	156	2.4	no acute effects	increased renal blood flow to a greater degree than fusaric acid	lowered mean arterial pressure similarly	DBH inhibitory activity ([1]; concentrations up to 100 uM): no appreciable activity; inhibition at 20 µM ([1]; test compound 20 μM): 1.5%; Renal blood flow change ([2]; anesthetized SHR, i.d. 100 mg/kg, 15 minutes after injection): unchanged; Renal Blood Flow ([2]; anesthetized SHR, i.d. 100 mg/kg, 30 minutes postinjection): 3.5 KHz; effect on mean arterial pressure ([2]; anesthetized SHR, i.d. 100 mg/kg, 60 minute observation): no effect; Renal Blood Flow ([2]; anesthetized SHR, i.d. 100 mg/kg, control period): 1.1 KHz; Renal blood flow course ([2]; anesthetized SHR, i.d. 100 mg/kg, following 30 minute observation period (30-60 min)): remained at this level; MAP (SE) (SHR; 5 mg/hr i.v. infusion, day 1): 122 ± 9 mm Hg; MAP (SE) (SHR; 5 mg/hr i.v. infusion, day 2): 115 ± 9 mm Hg; MAP (SE) (SHR; 5 mg/hr i.v. infusion, day 3): 119 ± 11 mm Hg; MAP (SE) (SHR; 5 mg/hr i.v. infusion, day 4): 121 ± 7 mm Hg; MAP (SE) (SHR; 5 mg/hr i.v. infusion, day 5): 115 ± 8 mm Hg; MAP (SE) (SHR; 5 mg/hr i.v. infusion, day zero): 146 ± 5 mm Hg
CCCCc1ccc(C(=O)O)nc1 [Fusaric Acid, 5-n-butylpicolinic acid]	0.59	0.53	0.14	0.00	significant inhibitory effects	111	3.1	106	3.2	103	3.4	99	3.9	155	2.5	decreased mean arterial pressure	increased renal blood flow	lowered mean arterial pressure similarly	concentration above which the enzyme is inhibited ([1]; 20 mM dopamine as substrate, 37° C): > 1 µM; Norepinephrine Peak Intensity (Abs 280) in the presence of compound ([1]; compound 0.01 μM): 0.59 Abs 280; Norepinephrine Peak Intensity (Abs 280) in the presence of compound ([1]; compound 0.50 μM): 0.60 Abs 280; Norepinephrine Peak Intensity (Abs 280) in the presence of compound ([1]; compound 5.00 μM): 0.25 Abs 280; Norepinephrine Peak Intensity (Abs 280) in the presence of compound ([1]; compound 50.00 μM): 0.00 Abs 280; inhibition at 20 µM [1]: 75.4%; MAP (SE) (SHR; 2.5 mg/hr i.v. infusion, day 1): 118 ± 5 mm Hg; MAP (SE) (SHR; 2.5 mg/hr i.v. infusion, day 2): 114 ± 7 mm Hg; MAP (SE) (SHR; 2.5 mg/hr i.v. infusion, day 3): 122 ± 5 mm Hg; MAP (SE) (SHR; 2.5 mg/hr i.v. infusion, day 4): 114 ± 6 mm Hg; MAP (SE) (SHR; 2.5 mg/hr i.v. infusion, day 5): 114 ± 3 mm Hg; MAP (SE) (SHR; 2.5 mg/hr i.v. infusion, day zero): 148 ± 6 mm Hg
